Structures are written as SMILES. Converted amounts (≈) assume the structure as drawn. The source made the active and inactive calls. The calls are words filed in the database; no cut-off is given here.

Seven compounds from ChEMBL document CHEMBL4130347, “Molecular topology: A new strategy for antimicrobial resistance control” (2017) can be followed below.

The subject of assay [1] is Staphylococcus aureus. Description: Antibacterial activity against methicillin-susceptible Staphylococcus aureus ATCC 25923 by microdilution method. Format: functional. (In broth dilution the organism is exposed to a series of concentrations in liquid medium.)
Assay [2] has as its system Staphylococcus aureus. Briefly: Antibacterial activity against methicillin-resistant Staphylococcus aureus ATCC 33591 by microdilution method. Format: functional.
The subject of assay [3] is Escherichia coli. Description: Antibacterial activity against Escherichia coli ATCC 25922 by microdilution method. Format: functional, organism-based.
Assay [4] concerns Enterococcus faecalis. Briefly: Antibacterial activity against Enterococcus faecalis ATCC 51299 by microdilution method. Format: functional.
Assay [5] has as its system Staphylococcus epidermidis. Briefly: Antibacterial activity against Staphylococcus epidermidis ATCC 12228 by microdilution method. Format: functional, organism-based.
Assay [6] concerns Bacteria. Briefly: Inhibition of bacterial RecA expressed in Escherichia coli ATCC 25922 harboring GyrA Ser83Leu mutant/ParC Ser80Arg mutant assessed as decrease in SOS induction at 50 uM after 8 hrs in presence of 0.25 times MIC of ciprofloxacin by fluorescence assay relative to control.
For assay [7], the system named is Bacteria. Briefly: Inhibition of bacterial RecA expressed in Escherichia coli ATCC 25922 harboring GyrA Ser83Leu mutant assessed as decrease in SOS induction at 50 uM after 8 hrs in presence of 0.25 times MIC of ciprofloxacin by fluorescence assay relative to control.
Assay [8] concerns Bacteria. Description: Inhibition of bacterial RecA expressed in Escherichia coli ATCC 25922 harboring GyrA Ser83Leu mutant/ParC Ser80Arg mutant/GyrA Asp87Asn mutant assessed as decrease in SOS induction at 50 uM after 8 hrs in presence of 0.25 times MIC of ciprofloxacin by fluorescence assay relative to control.
The test system of assay [9] is Bacteria. Briefly: Inhibition of bacterial RecA expressed in Escherichia coli ATCC 25922 assessed as decrease in SOS induction at 50 uM after 8 hrs in presence of 0.25 times MIC of ciprofloxacin by fluorescence assay relative to control.
Assay [10] concerns Bacteria. Description: Inhibition of bacterial RecA expressed in Escherichia coli ATCC 25922 harboring GyrA Ser83Leu mutant/ParC Ser80Arg mutant/GyrA Asp87Asn mutant/marR deletion mutant assessed as decrease in SOS induction at 50 uM after 8 hrs in presence of 0.25 times MIC of ciprofloxacin by fluorescence assay relative to control.
The test system of assay [11] is Staphylococcus aureus. Briefly: Antibacterial activity against methicillin-resistant Staphylococcus aureus ATCC 33591 assessed as decrease in levels of viable bacteria at 2 times MIC after 24 hrs by time-kill assay. Format: functional.
For assay [12], the system named is Staphylococcus aureus. Briefly: Antibacterial activity against methicillin-resistant Staphylococcus aureus ATCC 33591 assessed as decrease in levels of viable bacteria at 2 times MIC after 8 hrs by time-kill assay. Format: functional.
Assay [13] has as its system Staphylococcus aureus. Briefly: Antibacterial activity against methicillin-resistant Staphylococcus aureus ATCC 33591 assessed as decrease in levels of viable bacteria at 2 times MIC after 4 hrs by time-kill assay. Format: functional.
In assay [14] the test system is Staphylococcus aureus. Briefly: Antibacterial activity against methicillin-resistant Staphylococcus aureus ATCC 33591 assessed as growth inhibition after 48 hrs. Format: functional, organism-based.

`COCCOC(=O)C1=C(C)OC(N)=C(C#N)C12C(=O)N(CC(=O)OC)c1ccccc12` (configuration not stated): the MIC in [1] lay in the range of 16 to 128 µg/mL (≈ 37.4 to 299 µM); in [2], 16 to 128 µg/mL (≈ 37.4 to 299 µM); in assay [4] it was 32 to 128 µg/mL (≈ 74.9 to 299 µM). Further, the result in assay [3] was inactive. For the same compound, the result in assay [5] was Active.
In the case of `NNc1ccc(S(=O)(=O)N2CCOCC2)cc1[N+](=O)[O-]`, the MIC in assay [1] and in assay [2] was 16 to 128 µg/mL (≈ 52.9 to 423 µM) in each case. The result in assay [3] was inactive. The outcome in assay [4] and in [5] was Active.
Consider `O=C(O)CSc1cc(NS(=O)(=O)c2ccc(Cl)cc2)c2ccccc2c1O`, for which the inhibition in [6], in [7], in assay [8], in assay [9] and in assay [10] was 31 to 47% throughout. For the same compound, the MIC in assay [1] and in assay [2] was 16 to 128 µg/mL (≈ 37.7 to 302 µM) throughout. Also, the result in assay [3] was Active.
Take `O=C(CCN1CCOCC1)NNC(=O)c1ccc([N+](=O)[O-])cc1[N+](=O)[O-]`: the MIC lay within 16 to 128 µg/mL (≈ 43.6 to 348 µM) in assay [1], 16 to 128 µg/mL (≈ 43.6 to 348 µM) in [2] and 32 to 128 µg/mL (≈ 87.1 to 348 µM) in [4]. Moreover, the outcome in [3] was inactive. In [5], the result was Active.
`COc1cc(C(=O)OCCn2c(N3CCN(CCO)CC3)nc3c2c(=O)n(C)c(=O)n3C)cc(OC)c1OC`: the MIC lay in the range of 16 to 128 µg/mL (≈ 29.3 to 234 µM) in [1], 16 to 128 µg/mL (≈ 29.3 to 234 µM) in assay [2] and 32 to 128 µg/mL (≈ 58.5 to 234 µM) in assay [4]. The result in assay [3] was inactive. Besides, the result in [5] was Active.
For `CCN(CC)CCN1C(=O)C(O)=C(C(=O)c2ccc(OC)cc2)C1c1ccc(C)o1` (configuration not stated), the MIC in assay [1] and in assay [2] was 16 to 128 µg/mL (≈ 38.8 to 310 µM) each time. The Activity was 4 deltalog10CFU/ml in assay [11], 2.5 deltalog10CFU/ml in [12] and 1.5 deltalog10CFU/ml in [13]. Moreover, the outcome in [3] and in assay [4] was inactive. For the same compound, the “growth inhibition (GI)” value in assay [14] is “Dose-dependent effect”. For the same compound, the outcome in assay [5] was Active.
Consider `COc1cc(C(=O)OCCCn2c(=O)c3c(nc(N4CCN(CCO)CC4)n3C)n(C)c2=O)cc(O)c1OC`, for which the minimum inhibitory concentration (MIC) in assay [1] and in [2] was 16 to 128 µg/mL (≈ 29.3 to 234 µM) throughout. Besides, the result in [3] was inactive. Besides, the result in assay [4] and in assay [5] was Active.

Usually MIC stands for the lowest concentration that inhibits growth of the organism. Low readings indicate inhibition by little substance, high ones a need for much substance. As usually defined, the inhibition is the change of the read-out against control, counted positive when it falls.
